The values that follow come from the OligoGym collection.

The data set concerns the target HBV. The note with it: ASO.

Several values for one entry are separate records, joined by “and”; a condition that tells them apart may be missing. Identical values can stand only once. HELM strings list units from the 5' end as sugar, base in round brackets, then linkage (d deoxyribose, r ribose, m 2'-O-methyl, p phosphodiester). Methylation of C is not given here. [moe] = 2'-O-(2-methoxyethyl) (MOE); [cEt] = constrained ethyl (cEt); [sp] = phosphorothioate linkage

Regarding “RNA1{[moe](G)[sp].[moe](A)[sp].[moe](G)[sp].[moe](A)[sp].[moe](A)[sp].d(G)[sp].d(T)[sp].d(C)[sp].d(C)[sp].d(A)[sp].d(C)[sp].d(C)[sp].d(A)[sp].d(C)[sp].[moe](G)[sp].[moe](A)[sp].[moe](G)}$$$$V2.0”, the target mRNA inhibition (HepG2, 0.07 µM) was 20% and 13%. The same measure, in the same setting: the value for “RNA1{[moe](G)[sp].[moe](A)[sp].[moe](G)[sp].[moe](G)[sp].[moe](C)[sp].[moe](A)[sp].d(T)[sp].d(A)[sp].d(G)[sp].d(C)[sp].d(A)[sp].d(G)[sp].d(C)[sp].d(A)[sp].d(G)[sp].[moe](G)[sp].[moe](A)}$$$$V2.0” was 61% and 45%.

As to “RNA1{[moe](G)[sp].[moe](A)[sp].[moe](G)[sp].[moe](G)[sp].[moe](C)[sp].d(A)[sp].d(T)[sp].d(A)[sp].d(G)[sp].d(C)[sp].d(A)[sp].d(G)[sp].d(C)[sp].d(A)[sp].[moe](G)[sp].[moe](G)[sp].[moe](A)}$$$$V2.0”, the target mRNA inhibition (HepG2, 0.07 µM) is 47% and 43%. Take “RNA1{[moe](G)[sp].[moe](A)[sp].[moe](G)[sp].[moe](G)[sp].d(T)[sp].d(G)[sp].d(A)[sp].d(A)[sp].d(G)[sp].d(C)[sp].d(G)[sp].d(A)[sp].d(A)[sp].[moe](G)[sp].[moe](T)[sp].[moe](G)}$$$$V2.0”: the target mRNA inhibition (HepG2, 0.07 µM) is 14% and 26%. “RNA1{[moe](G)[sp].[moe](A)[sp].[moe](G)[sp].[moe](T)[sp].d(T)[sp].d(C)[sp].d(C)[sp].d(G)[sp].d(C)[sp].d(A)[sp].d(G)[sp].d(T)[sp].d(A)[sp].[moe](T)[sp].[moe](G)[sp].[moe](G)[sp].[moe](A)}$$$$V2.0”: the target mRNA inhibition (HepG2, 0.07 µM) is 62% and 51%. Still for that read-out and setting: the value for “RNA1{[moe](G)[sp].[moe](A)[sp].[moe](G)[sp].d(A)[sp].d(A)[sp].d(G)[sp].d(T)[sp].d(C)[sp].d(C)[sp].d(A)[sp].d(C)[sp].d(C)[sp].[moe](A)[sp].[moe](C)[sp].[moe](G)[sp].[moe](A)[sp].[moe](G)}$$$$V2.0” was 31% and 28%. On to “RNA1{[moe](G)[sp].[moe](A)[sp].[moe](G)[sp].d(G)[sp].d(C)[sp].d(A)[sp].d(T)[sp].d(A)[sp].d(G)[sp].d(C)[sp].d(A)[sp].d(G)[sp].d(C)[sp].[cEt](A)[sp].[cEt](G)[sp].[cEt](G)}$$$$V2.0”, for which the target mRNA inhibition (HepG2, 0.07 µM) is 75% and 74%. For “RNA1{[moe](G)[sp].[moe](A)[sp].[moe](T)[sp].[moe](G)[sp].d(A)[sp].d(G)[sp].d(G)[sp].d(C)[sp].d(A)[sp].d(T)[sp].d(A)[sp].d(G)[sp].d(C)[sp].[moe](A)[sp].[moe](G)[sp].[moe](C)}$$$$V2.0”, the target mRNA inhibition (HepG2, 0.07 µM) is 34% and 35%. Turning to “RNA1{[moe](G)[sp].[moe](A)[sp].[moe](T)[sp].d(G)[sp].d(A)[sp].d(G)[sp].d(G)[sp].d(C)[sp].d(A)[sp].d(T)[sp].d(A)[sp].d(G)[sp].d(C)[sp].[cEt](A)[sp].[cEt](G)[sp].[cEt](C)}$$$$V2.0”, the target mRNA inhibition (HepG2, 0.07 µM) was 56% and 66%. For the substance “RNA1{[moe](G)[sp].[moe](A)[sp].d(A)[sp].d(C)[sp].d(T)[sp].d(G)[sp].d(G)[sp].d(A)[sp].d(G)[sp].d(C)[sp].d(C)[sp].[moe](A)[sp].[moe](C)[sp].[moe](C)[sp].[moe](A)[sp].[moe](G)}$$$$V2.0”, where the note is “HepG2, 0.07 µM”, the target mRNA inhibition is 40% and 18%. Consider “RNA1{[moe](G)[sp].[moe](A)[sp].d(A)[sp].d(G)[sp].d(C)[sp].d(G)[sp].d(A)[sp].d(A)[sp].d(G)[sp].d(T)[sp].d(G)[sp].[moe](C)[sp].[moe](A)[sp].[moe](C)[sp].[moe](A)[sp].[moe](C)}$$$$V2.0”, for which the target mRNA inhibition was 9% (HepG2, 0.0092593 µM); 34% (HepG2, 0.0277778 µM); 71% and 64% (HepG2, 0.07 µM); 53% (HepG2, 0.0833333 µM); 81% (HepG2, 0.25 µM). With “RNA1{[moe](G)[sp].[moe](A)[sp].d(G)[sp].d(G)[sp].d(T)[sp].d(G)[sp].d(A)[sp].d(A)[sp].d(G)[sp].d(C)[sp].d(G)[sp].[moe](A)[sp].[moe](A)[sp].[moe](G)[sp].[moe](T)[sp].[moe](G)[sp].[moe](C)}$$$$V2.0”, the target mRNA inhibition (HepG2, 0.07 µM) is 67% and 63%. The same measure, in the same setting: next, “RNA1{[moe](G)[sp].[moe](A)[sp].d(G)[sp].d(T)[sp].d(T)[sp].d(C)[sp].d(C)[sp].d(G)[sp].d(C)[sp].d(A)[sp].d(G)[sp].[moe](T)[sp].[moe](A)[sp].[moe](T)[sp].[moe](G)[sp].[moe](G)}$$$$V2.0”: 52% and 45%; “RNA1{[moe](G)[sp].[moe](C)[sp].[moe](A)[sp].[moe](C)[sp].[moe](T)[sp].d(A)[sp].d(G)[sp].d(T)[sp].d(A)[sp].d(A)[sp].d(A)[sp].d(C)[sp].d(T)[sp].d(G)[sp].[moe](A)[sp].[moe](G)}$$$$V2.0”: 60%; “RNA1{[moe](G)[sp].[moe](C)[sp].[moe](A)[sp].[moe](G)[sp].[moe](A)[sp].d(G)[sp].d(G)[sp].d(T)[sp].d(G)[sp].d(A)[sp].d(A)[sp].d(G)[sp].d(C)[sp].d(G)[sp].[moe](A)[sp].[moe](A)[sp].[moe](G)}$$$$V2.0”: 76% and 59%. For the substance “RNA1{[moe](G)[sp].[moe](C)[sp].[moe](A)[sp].[moe](G)[sp].[moe](T)[sp].d(A)[sp].d(T)[sp].d(G)[sp].d(G)[sp].d(A)[sp].d(T)[sp].d(C)[sp].d(G)[sp].d(G)[sp].[moe](C)[sp].[moe](A)}$$$$V2.0”, the target mRNA inhibition (HepG2, 0.07 µM) is 67% and 61%. Under “HepG2, 0.07 µM”, “RNA1{[moe](G)[sp].[moe](C)[sp].[moe](A)[sp].[moe](G)[sp].d(A)[sp].d(G)[sp].d(G)[sp].d(T)[sp].d(G)[sp].d(A)[sp].d(A)[sp].d(G)[sp].d(C)[sp].[moe](G)[sp].[moe](A)[sp].[moe](A)[sp].[moe](G)}$$$$V2.0” had a target mRNA inhibition of 52%.

“RNA1{[moe](G)[sp].[moe](C)[sp].[moe](A)[sp].[moe](G)[sp].d(T)[sp].d(A)[sp].d(T)[sp].d(G)[sp].d(G)[sp].d(A)[sp].d(T)[sp].d(C)[sp].d(G)[sp].[moe](G)[sp].[moe](C)[sp].[moe](A)}$$$$V2.0”: under “HepG2, 0.07 µM”, the target mRNA inhibition was 69% and 61%. For “RNA1{[moe](G)[sp].[moe](C)[sp].[moe](A)[sp].d(C)[sp].d(T)[sp].d(A)[sp].d(G)[sp].d(T)[sp].d(A)[sp].d(A)[sp].d(A)[sp].d(C)[sp].[moe](T)[sp].[moe](G)[sp].[moe](A)[sp].[moe](G)}$$$$V2.0”, the target mRNA inhibition (HepG2, 0.07 µM) is 59%. The same measure, in the same setting: next, “RNA1{[moe](G)[sp].[moe](C)[sp].[moe](A)[sp].d(G)[sp].d(A)[sp].d(G)[sp].d(G)[sp].d(T)[sp].d(G)[sp].d(A)[sp].d(A)[sp].d(G)[sp].[moe](C)[sp].[moe](G)[sp].[moe](A)[sp].[moe](A)}$$$$V2.0”: 58% and 64%; “RNA1{[moe](G)[sp].[moe](C)[sp].d(A)[sp].d(C)[sp].d(T)[sp].d(A)[sp].d(G)[sp].d(T)[sp].d(A)[sp].d(A)[sp].d(A)[sp].[moe](C)[sp].[moe](T)[sp].[moe](G)[sp].[moe](A)[sp].[moe](G)[sp].[moe](C)}$$$$V2.0”: 75% and 78%.

For the substance “RNA1{[moe](G)[sp].[moe](C)[sp].d(A)[sp].d(C)[sp].d(T)[sp].d(A)[sp].d(G)[sp].d(T)[sp].d(A)[sp].d(A)[sp].d(A)[sp].[moe](C)[sp].[moe](T)[sp].[moe](G)[sp].[moe](A)[sp].[moe](G)}$$$$V2.0”, the target mRNA inhibition (HepG2, 0.07 µM) is 54% and 47%. On the same count and under the same terms, next, “RNA1{[moe](G)[sp].[moe](C)[sp].d(A)[sp].d(T)[sp].d(A)[sp].d(G)[sp].d(C)[sp].d(A)[sp].d(G)[sp].d(C)[sp].d(A)[sp].[moe](G)[sp].[moe](G)[sp].[moe](A)[sp].[moe](T)[sp].[moe](G)}$$$$V2.0”: 39% and 24%. Take “RNA1{[moe](G)[sp].[moe](G)[sp].[cEt](C)[sp].[cEt](A)[sp].d(T)[sp].d(A)[sp].d(G)[sp].d(C)[sp].d(A)[sp].d(G)[sp].d(C)[sp].d(A)[sp].d(G)[sp].[moe](G)[sp].[cEt](A)[sp].[moe](T)[sp].[moe](G)}$$$$V2.0”: the target mRNA inhibition (HepG2, 0.009375 µM) stood at 27%; the target mRNA inhibition (HepG2, 0.01875 µM) came out at 29%; the target mRNA inhibition (HepG2, 0.0375 µM) is 45%; the target mRNA inhibition (HepG2, 0.075 µM) turned out to be 56%; the target mRNA inhibition (HepG2, 0.15 µM) is 78%; the target mRNA inhibition (HepG2, 0.3 µM) was 84%. With “RNA1{[moe](G)[sp].[moe](G)[sp].[moe](C)[sp].[moe](A)[sp].d(T)[sp].d(A)[sp].d(G)[sp].d(C)[sp].d(A)[sp].d(G)[sp].d(C)[sp].d(A)[sp].d(G)[sp].[moe](G)[sp].[moe](A)[sp].[moe](T)[sp].[moe](G)}$$$$V2.0”, under “HepG2, 0.07 µM”, the target mRNA inhibition is 57% and 53%. Take “RNA1{[moe](G)[sp].[moe](G)[sp].[moe](C)[sp].[moe](A)[sp].d(T)[sp].d(A)[sp].d(G)[sp].d(C)[sp].d(A)[sp].d(G)[sp].d(C)[sp].d(A)[sp].d(G)[sp].[moe](G)[sp].[moe](A)[sp].[moe](T)}$$$$V2.0”: the target mRNA inhibition (HepG2, 0.07 µM) was 57% and 50%. As to “RNA1{[moe](G)[sp].[moe](G)[sp].[moe](C)[sp].d(A)[sp].d(T)[sp].d(A)[sp].d(G)[sp].d(C)[sp].d(A)[sp].d(G)[sp].d(C)[sp].d(A)[sp].d(G)[sp].[cEt](G)[sp].[cEt](A)[sp].[cEt](T)}$$$$V2.0”, the target mRNA inhibition (HepG2, 0.07 µM) was 56% and 44%.

For “RNA1{[moe](G)[sp].[moe](G)[sp].[moe](T)[sp].[moe](G)[sp].[moe](A)[sp].d(A)[sp].d(G)[sp].d(C)[sp].d(G)[sp].d(A)[sp].d(A)[sp].d(G)[sp].d(T)[sp].d(G)[sp].[moe](C)[sp].[moe](A)[sp].[moe](C)}$$$$V2.0”, for the setting “HepG2, 0.07 µM”, the target mRNA inhibition is 64% and 66%. With “RNA1{[moe](G)[sp].[moe](G)[sp].[moe](T)[sp].d(G)[sp].d(A)[sp].d(A)[sp].d(G)[sp].d(C)[sp].d(G)[sp].d(A)[sp].d(A)[sp].d(G)[sp].d(T)[sp].[cEt](G)[sp].[cEt](C)[sp].[cEt](A)}$$$$V2.0”, the target mRNA inhibition is 15% (HepG2, 0.0092593 µM); 42% (HepG2, 0.0277778 µM); 72% and 83% (HepG2, 0.07 µM); 67% (HepG2, 0.0833333 µM); 88% (HepG2, 0.25 µM).
